In US12241112B2, “D-glucaric acid producing bacterium, and method for manufacturing D-glucaric acid” (Ensuiko Sugar Refining Co., Ltd., priority 2012, dated 2025):
Structures can show the parent of a compound that is named as a salt.

B1: PQQ-ALDH (2): specific pyrroloquinoline quinone-dependent aldehyde dehydrogenase, amino acid sequence of SEQ ID NO: 2 (protein)
chain: MYRKGSVLTVSALVLGLCTSSVWAQQAPTTNALDNLTPVTSVWAQQAPTTNALDNLTPVTGWGYSPLDQINKDNVDKLQLVWSWGLSPGGTTQETPLVHDGVMFVQNSSHLIQALDAGTGELLWQYQYSLPTGVNPAGQRSKALYGDNLIFATRDAHIVAVNAKTGKLAWDQQVADYKKGWGYSSGPLVADGTIIQGMTNCGNGEPGGCFITGHDPATGKELWRLNTIASGDTPEGNSWNGLPQMSRYGASAWITGSYDPDQNIVFAGVGQPYPWPAVLNGLLPKSTDSKYTNNAAYTDSTLAIEPKTGALKWYHQYLATDTLDLDYVYERLLVDLPVKGEATKQVITAGKLAIIESLDRTSGKWLWAHETVPQNVVSAIDPVTGEKTINPDVIPQVGKTTVNCPADPGGRAWQATSFSPKTQMMYMPTVEFCSNTDVNPLDPGQVYTGGGLATFNRVPRPDSDGNIGQVRAINLADQTDAWMYRQHAPVTTSTLPTGGGLVFVGTLDRKLIAFDDTTGKILWTSPKLDNAIESFPVTFTAGDKQYVAVVTNWSSGLGRLKSITPDVQLPQDNPHTVYVFALPDTK
modifications: Pseudogluconobacter
B2: PQQ/Heme-ALDH (4): ALDH (3) enzyme with the highest activity, contains PQQ and Heme c, SEQ ID NO: 3 (protein)
chain: MTIRLKTLLAFTAITTLALPAFAQDAAAPAAPAARTYKPVTNDMILNPPAEEWISWRRTVDNQGYSPLDLINKDIVKNLELAWAWPMAADGQQEAAPLVHDGIMFLSTNQNIIQALDAKTGDLIWEYRHVLPELPTSWGYQLNQARRQKNSIALYDDKVIVATADAKLVALDAATGKVAWETQVYDTQKGYSYTVGPLIVGDTAVYGPAGGEYGIRGWLEFIAAHDAKTGKEIWRFNTIDDPKNPEQEASWNGVPPENRWGGTPWTTGSYDPRTNTTFWGVGMPGPYSQLIRGSGEGPVLYTNNTLALDADTGERKWNFSHLPADNWDLDSPFERILVDEGQGDAAKHLLVTVPGKDGIAFGLDRDTGKYLWSRDTVYQNVVKNIDAEGKVTLNSDLVPTAVNQEVFVCTSVSGGKLWMTGAYSPKTQTYYVPLAEACNTVTPTVTEFTAGNAVGATKFGPRVLPPNITNGGVVEAINVADGARKWRLEQRPTFSSSLLAKAKVLVPRRLNGMLATGGDLETGQVVWKTRLNAPIGGYPMTYEIDGEQYLAVPTGFSAQASSSASMFPEIPVPSGSGNSLFVFKLRNDTQTASK
modifications: PQQ and heme c cofactors; Pseudogluconobacter
B3: PQQ-ADH (1): specific pyrroloquinoline quinone-dependent alcohol dehydrogenase, amino acid sequence of SEQ ID NO: 1 (protein)
chain: MLKQSLLASGLAALCVAAMGSLSLAAETTSERLLNAGSEAENGNWLMVHRTYDSHRFSPLSEINKDTIKDLGLASVTILDNASRGGRYASARNEGTPLVEDGFMYLQSGWSVVYKLDVRDGKTAKVVWKYDPEVDRQWVSDATCCGAENRGIGLWNDDVVALTMDGRVMSINKDTGELNWEKQRADKARAESFTGAPLIIGDTAVYGPAGGEYGIRGWLEAIDLKTGDVAWRTYTVPGPGEPGNDTWQGNAWETGGASIWQTGSYDPDTGMTYWGTGNPAPQIDAEYRPGDNLYASSLLALDAKDGALKWHFQFTPNDPYDYDEIGDNQLLDVSVDGKPSKMVVRAARNGFMYGFNRLDGAMTYAKQYVEDLTWTTGIDPKTGKPLEYDPKAQLQKYVAGTVGSREGNPGIYCPTLGGGKNWQPAAYSPNTKLLYVTSAEGCSAYVPEAAPNPTTTGGEYDVVKAQREWNGRLPAPEGTKLPDVFNGGSVKAIDPLTGETKAKVLVPRRLNGMLATGGDLVWSSGTDGNLYAYDANTLETVWTFNVGTALGGPPMSYSVDGKQYVAVLAGAAASAADKKVAPQSEFFVPADALYIFALK
modifications: Pseudogluconobacter

Tests used:
PQQ-ALDH (2) = assay: Substrate specificity of PQQ-ALDH (2); assay type: biochemical, Pseudogluconobacter saccharoketogenes; conditions: McIlvaine buffer pH 8.0, relative to sodium salt of intermediate B set to be 100
Protocol: (§1) • Substrate solution: 0.2 M sodium glyoxylate solution (adjusted to pH 8.0 with sodium hydroxide) • Buffer: McIlvaine buffer (pH 8.0)
(§2) Other reagents and preparation methods thereof and measurement procedures are in accordance with the measurement of ADH (1) activity.
(§3) Each substrate (D-glucose, sodium D-gluconate, sodium D-glucuronate, intermediate A, sodium salt of intermediate B, sodium glyoxylate) was dissolved in McIlvaine buffer (pH 8.0) and the activity of ALDH was measured as described in Example 1 to study the substrate specificity of PQQ-ALDH (2). The enzyme activity for each substrate is expressed as a relative activity to the activity measured with the sodium salt of intermediate B as a substrate that was set to be 100.

PQQ/Heme-ALDH (4) = assay: Substrate specificity of PQQ/Heme-ALDH (4); assay type: biochemical, Pseudogluconobacter saccharoketogenes; conditions: McIlvaine buffer pH 8.0, relative to sodium D-gluconate set to be 100
Protocol: as §1, §2
Each substrate (D-glucose, sodium D-gluconate, sodium D-glucuronate, intermediate A, sodium salt of intermediate B, sodium glyoxylate) was dissolved in McIlvaine buffer (pH 8.0) and the activity of ALDH was measured as described in Example 1 to study the substrate specificity of PQQ/Heme-ALDH (4). The enzyme activity for each substrate is expressed as a relative activity to the activity measured with sodium D-gluconate as a substrate that was set to be 100.

PQQ-ADH (1) = assay: Substrate specificity of PQQ-ADH (1); assay type: biochemical, Pseudogluconobacter saccharoketogenes; conditions: McIlvaine buffer pH 5.0, relative to D-glucose set to be 100
Protocol: (§4) The culture solution (1 mL) was centrifuged at 10,000 rpm for 5 minutes to recover the cells. The cells were resuspended in 1 mL of 0.9% saline. The cell suspension was appropriately diluted in 0.9% saline to obtain a crude enzyme solution. In a test tube 250 μL of the buffer, 500 μL of the substrate solution and 50 μL of the crude enzyme solution were placed and preliminarily heated to 30° C. for 5 minutes.
(§5) To the mixture 200 μL of the potassium ferricyanide solution was added to initiate oxidation reaction. After 10 minutes, 500 μL of the reaction termination solution was added to terminate the reaction. The reaction solution was added with 3.5 mL of pure water, left to stand in the dark at room temperature for 20 minutes and measured for the absorbance at 660 nm. For the control, pure water was used instead of the substrate solution. In this measurement, 1 U is defined as the amount of enzyme required to oxidize 1 μM of the substrate per minute.
as §3, with “B)” for “B, sodium glyoxylate)”, “5.0)” for “8.0)”, “ADH” for “ALDH”, “PQQ-ADH (1).” for “PQQ-ALDH (2).”, “D-glucose” for “the sodium salt of intermediate B”

β-glucuronidase = target: T1, β-glucuronidase (Homo sapiens, UniProt P08236); conditions: background statement; cited from earlier work
T1 sequence (P08236 23-651): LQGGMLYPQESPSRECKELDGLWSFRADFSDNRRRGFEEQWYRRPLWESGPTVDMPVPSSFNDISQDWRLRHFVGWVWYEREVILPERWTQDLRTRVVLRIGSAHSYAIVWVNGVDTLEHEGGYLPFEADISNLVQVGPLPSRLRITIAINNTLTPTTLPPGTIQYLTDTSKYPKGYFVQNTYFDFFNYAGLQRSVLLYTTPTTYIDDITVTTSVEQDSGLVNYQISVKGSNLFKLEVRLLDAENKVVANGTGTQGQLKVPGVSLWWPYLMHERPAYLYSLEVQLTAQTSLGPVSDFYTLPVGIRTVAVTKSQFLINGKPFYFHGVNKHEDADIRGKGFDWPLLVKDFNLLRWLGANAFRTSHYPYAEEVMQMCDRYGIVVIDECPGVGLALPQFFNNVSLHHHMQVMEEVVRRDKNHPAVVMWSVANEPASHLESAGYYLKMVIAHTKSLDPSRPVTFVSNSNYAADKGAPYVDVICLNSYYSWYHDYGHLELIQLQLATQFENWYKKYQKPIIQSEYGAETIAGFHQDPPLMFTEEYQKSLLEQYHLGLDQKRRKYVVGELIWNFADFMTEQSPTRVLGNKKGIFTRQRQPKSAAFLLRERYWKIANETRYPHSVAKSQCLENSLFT

ALDH (2 and 3) = assay: Measurement of activity of ALDH (2 and 3) (potassium ferricyanide method, sodium glyoxylate substrate, pH 8.0); assay type: biochemical, Pseudogluconobacter saccharoketogenes
Protocol: as §4, §5
2) Measurement of Activity of ALDH (2 and 3)
as §1, §2

ADH (1) = assay: Measurement of activity of ADH (1) (potassium ferricyanide method, glucose substrate, pH 5.0); assay type: biochemical, Pseudogluconobacter saccharoketogenes; conditions: ADH (1) activity
Protocol: 1) Measurement of Activity of ADH (1)
• Substrate solution: 0.2 M glucose solution • Buffer: McIlvaine buffer (pH 5.0) • Potassium ferricyanide solution: 0.1 M potassium ferricyanide solution • Reaction termination solution: 5 g of ferric sulphate and 95 mL of phosphoric acid were dissolved in pure water and adjusted to 1 L. <Measurement Procedures>
as §4, §5

| Molecule | Relative activity (PQQ-ALDH (2); 0.2M substrate) | Relative activity (PQQ/Heme-ALDH (4); 0.2M substrate) | Relative activity (PQQ-ADH (1); 0.2M substrate) [%] | other results |
| --- | --- | --- | --- | --- |
| O=C[C@H](O)[C@@H](O)[C@H](O)[C@H](O)C(=O)[O-].[Na+] [sodium D-glucuronate] | 18.6% | 2.9% | <1 | – |
| O=C[C@H](O)[C@@H](O)[C@H](O)[C@H](O)CO [D-glucose] | 11.8% | 35.1% | 100 | – |
| O=C[C@@H](O)[C@@H](O)[C@H](O)[C@@H](O)C=O [intermediate A, D-glucaraldehyde] | – | – | – | Relative activity (PQQ-ALDH (2); 0.02M substrate): 476%; Relative activity (PQQ/Heme-ALDH (4); 0.02M substrate): 11.6%; Relative activity (PQQ-ADH (1); 0.02M substrate): 59.1% |
| O=CC(=O)[O-].[Na+] [sodium glyoxylate, reference compound] | 3,050% | 20,260% | – | – |
| O=C([O-])[C@H](O)[C@@H](O)[C@H](O)[C@H](O)CO.[Na+] [sodium D-gluconate] | <1% | 100% | 88.6 | – |
| O=C[C@@H](O)[C@@H](O)[C@H](O)[C@@H](O)C(=O)O [sodium salt of intermediate B, L-guluronic acid] | 100% | 21.1% | 2.7 | – |
| O=C(O)[C@@H](O)[C@@H](O)[C@H](O)[C@@H](O)C(=O)O [D-glucaric acid] | – | – | – | inhibition of β-glucuronidase (β-glucuronidase): strongly inhibit |
| B1 | – | – | – | Specific activity (ALDH (2 and 3); enzyme purified from Rh47-3 strain, ALDH (2) activity): 8,928 U/mg |
| B2 | – | – | – | Specific activity (ALDH (2 and 3); enzyme purified from K591s strain, ALDH (3) activity): 27,661 U/mg |
| B3 | – | – | – | Specific activity (ADH (1); enzyme purified from K591s strain): 36.0 U/mg; Specific activity (ADH (1); enzyme purified from Rh47-3 strain): 38.6 U/mg |
